Like-named read-outs stand apart in the source and are kept apart here.
Experiments:
[1] = tested on: male mice (CD1 Charles Rivers); assay: Diarrheic activity, oral; format: in vivo, mouse
Procedure: The test is carried out on male mice (CD1 Charles Rivers) weighing 25 to 30 g, which have gone without food for 6 hours. The product dissolved at 5% in methocel is administered by oral route, using a probang.
The control animals receive only the excipient.
After treatment, the animals are put separately in cages. The bottoms of the cages are covered with blotting paper and are observed at 30, 60, 120 and 180 minute intervals.
The absorbent sheets of paper are changed after each observation.
The consistency of the faeces is evaluated according to the method of Randall and Baruth (Arch. Int. Pharmacodyn. 220, 94, 1976) by following the scale of the following values:
1: slightly soft feces with or without moist ring,
2: slightly soft feces with presence of a well-defined moist circle,
3: soft feces with presence of a large moist circle,
4 feces without consistency with presence of a very large moist circle.
For each product, the dose was noted which caused diarrhoea in 50% of the animals according to the method of Miller and Tainter (Proc. Soc. Exp. Biol. Med., 57 261, 1944).

[2] = tested on: male mice (CD1 Charles Rivers); assay: Duration of hypothermic action: variations in body temperature; format: in vivo, mouse; settings: 180 min
[3] = tested on: male mice (CD1 Charles Rivers); assay: Hypothermic activity: dose reducing body temperature by 1° C.; format: in vivo; settings: Mus musculus, read-out: Effective dose (-1° C.)
Procedure: (§1) The test is carried out on male mice (CD1 Charles Rivers) weighing 25 to 30 g, which have gone without food for 6 hours.
(§2) The body temperature is noted using a thermocouple placed about […] inside the rectum and connected to an electrical temperature recorder.
(§3) The products are administered by oral or sub-cutaneous route and the temperatures are noted at 0 and 30 minutes, 1 hour, 2 hours and 2 and a half hours after treatment.
(§4) The degree of hypothermia is evaluated as the difference between the treated animals and the control animals and the dose necessary to reduce the body temperature by 1° C. is determined.

[4] = tested on: male mice (CD1 Charles Rivers); assay: Duration of hypothermic action: variations in body temperature; format: in vivo, mouse
Procedure: as §1, §2, §3, §4
The duration of action of the products is determined by using doses which can reduce the temperature by 1.5° C. to 1.7° C.

[5] = tested on: isolated ileum of a guinea pig; assay: Test of the isolated ileum of a guinea pig (agonist contraction); settings: Cavia porcellus, Tyrode solution, 37° C., read-out: pD2 (negative logarithm of the dose which produces 50% of the maximum effect) (converted)
Procedure: 1Test of the isolated ileum of a guinea pig
Ileum fragments are removed from a guinea-pig killed by decapitation. The isolated ileum is placed in 10 cm^3 of Tyrode solution at 37° C. and aerated by a mixture of oxygen (95%) and carbon dioxide (5%). Contractions caused by the products are recorded using a sensor connected to a polygraph. The products under test are added, at concentrations comprised between 1.10^-3 M and 1.10^-8 M/1.
The products showing a contracturating effect are tested relative to atropine and hexamethonium in order to establish whether the activity is of "muscarinic" or "nicotinic" type.
The agonist activity is expressed in pD2 (negative logarithm of the dose which produces 50% of the maximum effect).

Solubility = format: physicochemical; settings: for solubility in water: H2O
[6] = Acute toxicity, oral, mortality over 7 days; settings: mouse, in vivo, male mice
Procedure: The test is carried out on male mice (CD1 Charles Rivers) weighing 22 to 24 g, which have gone without food for 16 hours. […] The mortality is noted over the 7 days following the treatment.

[7] = tested on: central cholinergic system; settings: cited from earlier work
[8] = tested on: patients who have a memory deficiency; settings: intravenous route; cited from earlier work

Row | Compound | DE50 (dose which caused diarrhoea in 50% of the animals) [1] [mg/kg] | ED (-1 C body temperature) ([3]; SC route) [mg/kg] | ED (-1 C body temperature) ([3]; oral route) [mg/kg] | EC50 [5] [nM] | solubility in 2N HCl (Solubility) | solubility in 2N NaOH (Solubility) | solubility in water (Solubility) | other results
1 | COC(=O)C1=CCCN(C)C1 [Arecoline, HBr, reference compound] | 35 | 3 | 190 | 126 | – | – | – | Variation in body temperature ([2]; 3.5 mg/kg, sc): +0.2 °C; Variation in body temperature ([4]; 3.5 mg/kg, sc, 0 min): -0.1 °C; Variation in body temperature ([4]; 3.5 mg/kg, sc, 30 min): -1.5 °C; Variation in body temperature ([4]; 3.5 mg/kg, sc, 60 min): -0.1 °C; Variation in body temperature ([4]; 3.5 mg/kg, sc, 120 min): +0.2 °C
2 | CCN(CC)C(=O)COC(=O)N1CCC=C(C=NOC)C1 [Example 2, (diethylaminocarbonyl) methyl 3-(methoxyiminomethyl)-1,2,5,6-tetrahydropyridine-1-carboxylate] | – | – | – | – | insoluble | insoluble | insoluble | –
3 | C=CCN(CC=C)C(=O)COC(=O)N1CCC=C(C=NOC)C1 [Example 3, (di(2-propenyl)-aminocarbon-yl)-methyl 3-(methoxyiminomethyl)-1,2,5,6-tetrahydropyridine-1-carboxylate] | > 50 | 8 | 9 | > 100000 | insoluble | insoluble | insoluble | LD50 at 168 h [6]: 500 mg/kg; Variation in body temperature ([2]; 15 mg/kg, os): +0.1 °C; Variation in body temperature ([4]; 12 mg/kg, sc, 30 min): -0.9 °C; Variation in body temperature ([4]; 12 mg/kg, sc, 60 min): -1.6 °C; Variation in body temperature ([4]; 12 mg/kg, sc, 120 min): -0.6 °C; Variation in body temperature ([4]; 15 mg/kg, os, 0 min): +0.1 °C; Variation in body temperature ([4]; 15 mg/kg, os, 30 min): -1.3 °C; Variation in body temperature ([4]; 15 mg/kg, os, 60 min): -1.7 °C; Variation in body temperature ([4]; 15 mg/kg, os, 120 min): -0.5 °C
4 | CON=CC1=CCCN(C(=O)OCC(=O)N2CCCCC2)C1 [Example 4, (1-piperidinylcarbonyl)-methyl 3-(methoxyiminomethyl)-1,2,5,6-tetrahydropyridine-1-carboxylate] | – | – | – | – | insoluble | insoluble | insoluble | –
5 | CON=CC1=CCCN(C(=O)OCC(=O)N2CCN(C)CC2)C1 [Example 5, (4 methyl-1-piperazinyl)-carbonylmethyl 3-(methoxyiminomethyl)-1,2,5,6-tetrahydropyridine-1-carboxylate] | – | – | – | – | soluble | insoluble | soluble | –
6 | COC(=O)C1=CCCN(C)C1 [arecoline] | – | – | – | – | – | – | – | duration of action ([7]; in vivo): short-term action; activity by oral route ([7]; oral route): very weak activity by oral route; effect on patients who have a memory deficiency [8]: positive effect
